US9289398B2, “Methods for the production of functional protein from DNA having a nonsense mutation and the treatment of disorders associated therewith” (PTC Therapeutics, Inc., priority 2006, dated 2016)
Where two headings read alike, the source gives them in different places.

Legend:
Assay type in all cases: in vivo, human
[1] = Pharmacokinetics, CF Phase 2 preliminary analysis; settings: for Cmax / AUC(0-t): both sexes, human, in vivo, oral; for AUC(0-t): read-out: AUC0-24
Source text: (§1) 3-[5-(2-Fluoro-phenyl)-[1,2,4]oxadiazol-3-yl]-benzoic acid was provided in a formulation described herein.
The 3-[5-(2-fluoro-phenyl)-[1,2,4]oxadiazol-3-yl]-benzoic acid interim PK parameters from these 15 patients are described in Table 17.

[2] = Safety, tolerability and compliance, DMD Phase 2 interim (6 patients)
Description: 3-[5-(2-Fluoro-phenyl)-[1,2,4]oxadiazol-3-yl]-benzoic acid is provided in a formulation described herein. Treatment is administered over 28 days for each treatment cohort. An initial cohort of patients are treated daily for 28 days with 3-[5-(2-fluoro-phenyl)-[1,2,4]oxadiazol-3-yl]-benzoic acid at a given dose level (e.g., 4-, 4-, and 8-mg/kg) TID. If the initial patients tolerate the drug, then a second cohort of patients receives 3-[5-(2-fluoro-phenyl)-[1,2,4]oxadiazol-3-yl]-benzoic acid at a higher dose level (e.g., 10-, 10-, and 20-mg/kg) TID. Thus, each patient receives a total of 84 doses of 3-[5-(2-fluoro-phenyl)-[1,2,4]oxadiazol-3-yl]-benzoic acid. After the end of 28 days of treatment, each patient is followed for an additional 28 days without treatment.
Six patients were administered 3-[5-(2-fluoro-phenyl)-[1,2,4]oxadiazol-3-yl]-benzoic acid TID in a regimen consisting of 4 mg/kg with breakfast, 4 mg/kg with lunch, and 8 mg/kg with supper, for a total daily dose of 16 mg/kg. All patients were ambulatory, but had characteristic signs and symptoms of DMD, including some degree of muscle dysfunction and elevated serum CK concentrations. […] These adverse events included diarrhea in 1 patient; abdominal pain in 1 patient; and flatulence in 2 patients. […] Treatment compliance was good, with patients taking >95% of the intended total drug treatment for 28 days at the lower dose level.

[3] = system: serum CK; assay: Serum CK levels, DMD Phase 2; settings: boys with nonsense-mutation-mediated DMD, 28 days
Description: Serum CK activity is assessed using a commercially available NADH-linked kinetic assay (Diagnostic Chemicals Ltd., Oxford, Conn.). Serum CK levels are measured prior to treatment, on day 1 (prior to first dose), day 7, day 14, day 21, and day 27 during the treatment period, and on day 42 and day 56 after treatment. Serum CK is increased in Duchenne muscular dystrophy and therefore is a readily measurable diagnostic marker for the disease and may serve as a potential biomarker for the pharmacological activity of the drug (Mendell et al., 1989, New Eng. J. Med. 320(24):1592-1597).
3-[5-(2-fluoro-phenyl)-[1,2,4]oxadiazol-3-yl]-benzoic acid was administered orally for 28 days at dose levels of 4, 4, 8 mg/kg (low dose); 10, 10, 20 mg/kg (mid dose); and 20, 20, 40 mg/kg (high dose) after breakfast, lunch, and dinner, respectively. 26 boys (ages: 5-13 years; stop codons: 15 UGA, 6 UAG, 5 UAA; baseline serum CK: 8,645-49,500 IU; steroid use: 19/26) completed 3-[5-(2-fluoro-phenyl)-[1,2,4]oxadiazol-3-yl]-benzoic acid at the low (n=6) or mid (n=20) dose levels. […] Compliance was >98% for both dose levels. Day 1 and Day 28 PK indicate stable plasma exposures over time; however, exposures were lower than in 3-[5-(2-fluoro-phenyl)-[1,2,4]oxadiazol-3-yl]-benzoic acid-treated healthy adult volunteers and cystic fibrosis patients. […]

[4] = Body weight, CF Phase 2 study
Source text: as §1
(§2) Statistically significant results and positive trends for secondary endpoints were also observed. In particular, although the trials were not been powered to detect statistical significant changes in secondary endpoints, statistically significant improvements from study entry to the end of the higher-dose treatment cycle in the patients' mean FEV1, FVC and weight were observed.

[5] = Pulmonary function tests (FEV1, FVC), CF Phase 2 study
Description: Pulmonary function tests, including FEV1, FVC, and MEF25-75, are measured using standard spirometry procedures. Assessments of pulmonary function (including MEF25-75, FVC, and, particularly, FEV1) have been acknowledged as definitive clinical endpoints in patients with CF (Food and Drug Administration, 62nd Anti-Infective Drugs Advisory Committee. Discussion of NDA for tobramycin solution for inhalation (Tobi®) for the management of cystic fibrosis patients. November, 1997; Tiddens, 2002, Pediatr. Pulmonol. 34(3): 228-31). […] Pulmonary function testing is simple to administer (even in patients as young as 7 years of age), and uses standardized equipment and techniques that are widely available. Interpretation is performed using well-established normative equations that account for patient age, height, and gender.
Clinical endpoints were evaluated using the procedures set forth above. TEPD measurements were made prior to treatment and on days 14 and 28 of Cycle 1 and Cycle 2. Nasal mucosal curettage was collected from each nostril of each patient prior to treatment and on days 14 and 28 of Cycle 1 and Cycle 2. Pulmonary tests, including FEV1, FVC and MEF25-75, were measured prior to treatment, on day −1 of Cycle 2, on day 13 or 14 of Cycle 1 and day 13 or 14 of Cycle 2 in the study being conducted in Israel and the same parameters were measured prior to treatment and on day 13 or 14 of Cycle 2 in the study being conducted in the United States.
as §2

[6] = Plasma exposure, additional DMD Phase 2 study
Description: 3-[5-(2-fluoro-phenyl)-[1,2,4]oxadiazol-3-yl]-benzoic acid was administered orally for 28 days at dose levels of 4, 4, 8 mg/kg (low dose); 10, 10, 20 mg/kg (mid dose); and 20, 20, 40 mg/kg (high dose) after breakfast, lunch, and dinner, respectively. 26 boys (ages: 5-13 years; stop codons: 15 UGA, 6 UAG, 5 UAA; baseline serum CK: 8,645-49,500 IU; steroid use: 19/26) completed 3-[5-(2-fluoro-phenyl)-[1,2,4]oxadiazol-3-yl]-benzoic acid at the low (n=6) or mid (n=20) dose levels. […] Compliance was >98% for both dose levels. Day 1 and Day 28 PK indicate stable plasma exposures over time; however, exposures were lower than in 3-[5-(2-fluoro-phenyl)-[1,2,4]oxadiazol-3-yl]-benzoic acid-treated healthy adult volunteers and cystic fibrosis patients. […] Relative to baseline, post-treatment increases in in vivo dystrophin expression occurred in 4/6 (67%) (90% CI 27-94%) and 10/20 (50%) (90% C1-30-70%) boys at low and mid doses, respectively.
3-[5-(2-fluoro-phenyl)[1,2,4]oxadiazol-3-yl]-benzoic acid safely induces full-length dystrophin expression in vitro and in vivo and decreases serum CK levels in boys with nonsense-mutation-mediated DMD. […] Evaluation at the high dose level in 12 additional boys is ongoing.

[7] = 8 mg/kg, Cycle 1 lower dose 4, 4, 8 mg/kg, Day 1, N = 15, mean
[8] = 8 mg/kg, Cycle 1 lower dose 4, 4, 8 mg/kg, Day 14, N = 15, mean
[9] = 20 mg/kg, Cycle 2 higher dose 10, 10, 20 mg/kg, Day 1, N = 15, mean
[10] = 20 mg/kg, Cycle 2 higher dose 10, 10, 20 mg/kg, Day 14, N = 15, mean
[11] = 6 DMD patients, 4, 4, 8 mg/kg TID
[12] = of 6 DMD patients, 4, 4, 8 mg/kg TID
[13] = study entry to end of higher dose treatment, percentage of normal

Differences in PK parameters by gender ([1]; 15 CF patients): No differences
Cmin ([1]; Cycle 1 lower dose 4, 4, 8 mg/kg, Day 1, N = 15, mean): 1600 ng/mL
Cmin ([1]; Cycle 1 lower dose 4, 4, 8 mg/kg, Day 14, N = 15, mean): 1900 ng/mL
Cmin ([1]; Cycle 2 higher dose 10, 10, 20 mg/kg, Day 1, N = 15, mean): 5000 ng/mL
Cmin ([1]; Cycle 2 higher dose 10, 10, 20 mg/kg, Day 14, N = 15, mean): 6500 ng/mL
Cmax [1, 7]: 16000 ng/mL
AUC(0-t) [1, 7]: 145 µg·h/mL
Cmax [1, 8]: 13000 ng/mL
AUC(0-t) [1, 8]: 124 µg·h/mL
Cmax [1, 9]: 41000 ng/mL
AUC(0-t) [1, 9]: 435 µg·h/mL
Cmax [1, 10]: 36000 ng/mL
AUC(0-t) [1, 10]: 417 µg·h/mL
Plasma exposures over time ([6]; Day 1 and Day 28 PK): stable
Plasma exposures relative to treated healthy adult volunteers and cystic fibrosis patients ([6]; boys with DMD): lower
Compound: O=C(O)c1cccc(-c2noc(-c3ccccc3F)n2)c1 [3-[5-(2-fluoro-phenyl)-[1,2,4]oxadiazol-3-yl]-benzoic acid]
Discontinuation of treatment due to an adverse event ([2]; 6 DMD patients): No patient discontinued treatment
Physical examinations, vital sign measurements, electrocardiograms [2, 11]: no safety concerns
Serum liver enzymes, bilirubin, creatinine, blood urea nitrogen [2, 11]: No clinically significant elevations
Serious drug-related adverse events ([2]; 6 DMD patients, 4, 4, 8 mg/kg TID, 28 days): No serious drug-related adverse events
Severity of potentially drug-related adverse events ([2]; 6 DMD patients, 4, 4, 8 mg/kg TID, preliminary): mild
Abdominal pain, number of patients [2, 12]: 1
Diarrhea, number of patients [2, 12]: 1
Flatulence, number of patients [2, 12]: 2
Serum CK levels during administration [3]: decreased significantly
Weight, End of Higher Dose Treatment ([4]; study entry 58.3 kg): 59.0 kg
Weight, Change ([4]; study entry to end of higher dose treatment): 0.7 kg
Mean FEV1, End of Higher Dose Treatment ([5]; percentage of normal for gender, age and height, study entry 65.8%, one patient not included): 69.1%
Mean FVC, End of Higher Dose Treatment ([5]; percentage of normal for gender, age and height, study entry 80.2%, one patient not included): 85.1%
Mean FEV1, Change [5, 13]: 3.3%
Mean FVC, Change [5, 13]: 4.9%
Plasma exposures relative to those associated with maximal preclinical activity ([6]; low and mid dose levels): did not achieve plasma exposures associated with maximal preclinical activity
